The test system of series [1] is human islets. Description: in vitro perifusion, glucagon secretion from human islets. The format is cell-based. The settings on record: for glucagon release / glucagon secretion: agonist 100 μM, 3 mM glucose.
Protocol: (§2) A high-capacity, automated perifusion system was developed to dynamically measure hormone secretion from pancreatic islets. A low pulsatility peristaltic pump pushed HEPES-buffered solution (mM: 125 NaCl, 5.9 KCl, 2.56 CaCl2, 1 MgCl2, 25 HEPES, and 0.1% BSA; pH 7.4; and a perifusion rate of 100 μL/min) through a column containing 100 pancreatic islets immobilized in Bio-Gel P-4 Gel (BioRad, Hercules, Calif.). Except otherwise stated, glucose concentration was adjusted to 3 mM for all experiments. Stimuli were applied with the perifusion buffer. The perifusate was collected in an automatic fraction collector designed for a 96 well plate format. The columns containing the islets and the perifusion solutions were kept at 37° C., and the perifusate in the collecting plate was kept at <4° C. Perifusates were collected every minute. Hormone release in the perifusate was determined with the human or mouse Endocrine LINCOplex Kit following manufacturer's instructions (Linco research, St. Charles, Mo.).
The subject of series [2] is human islets and dispersed single islet cells. As to the kind of experiment: [Ca^2+]i imaging (Fura-2) of human islets and dispersed islet cells. The series is classed as cell-based. The settings on record: for [Ca^2+]i response: 100 μM. On the procedure:
(§1) Glucose was added to give a final concentration of 3 mM. Islets or dispersed islet cells were incubated in Fura-2 AM (2 μM; 1 hour) and placed in a closed small-volume imaging chamber (Warner Instruments, Hamden, Conn.). Stimuli were applied with the bathing solution. Islets loaded with Fura-2 were excited alternatively at 340 and 380 nm with a monochromator light source (Cairn. Research Optoscan Monochromator, Cairn Research Ltd, Faversham, UK). Images were acquired with a Hamamatsu camera (Hamamatsu Corp, Japan) attached to a Zeiss Axiovert 200 microscope (Carl Zeiss, Jena, Germany). Changes in the 340/380 fluorescence emission ratio over time were analyzed in individual islets and dispersed cells using Kinetic Imaging AQM Advance software (Kinetic Imaging, N.C.). Peak changes in the fluorescence ratio constituted the response amplitude.

Series [3] deals with monkey islets and dispersed single islet cells. As to the kind of experiment: [Ca^2+]i imaging (Fura-2) of monkey islets and islet cells. The conditions noted are these: glutamate 100 μM. The series is classed as cell-based, monkey (Macacca fascicularis). The method, then: as §1, with “Imaging of [Ca^2+]i was performed as described elsewhere (Cabrera et al., 2006). […] Glucose” for “Glucose”

The test system of series [4] is human islets. The format is cell-based. The settings on record: glutamate 100 μM. On the procedure: Perifusion of the islets was stopped after addition of the stimulus to allow the islet secretory products to accumulate and then resumed after 10 minutes.
Series [5] deals with mouse islets. Description: perifusion, glucagon secretion from mouse islets. The format is cell-based, mouse (C57Bl/6). The conditions noted are these: for glucagon release / secretion: 100 μM.
Protocol: as §2
The next series relates to C57BL/6 mice. Description: in vivo responses to iGluR agonists injected i.p. The conditions noted are these: glutamate 30 mg/kg, AMPA 15 mg/kg, i.p. The arrangement: species or system mouse. The method, then: We examined in vivo responses to iGluR agonists by injecting C57BL/6 mice i.p. with either PBS (n=4), monosodium glutamate (30 mg/kg; n=7), or AMPA (15 mg/kg; n=8). To determine whether blocking iGluRs exacerbates insulin-induced hypoglycemia, we injected the AMPA/kainate iGluR antagonist NBQX (Tocris, Ellisville, Mo.) i.p. at 20 mg/kg 30 minutes before mice were treated with insulin to induce hypoglycemia.

For series [6] the following is noted: Beyreuther et al., 2007; cited from earlier work.
In series [7] the test system is human islets. As to the kind of experiment: in vitro perifusion, insulin release from human islets. The settings on record: 100 μM.
Protocol: as §2
The test system of series [8] is monkey islets. As to the kind of experiment: in vitro perifusion, insulin release from monkey islets. The settings on record: 100 μM; not shown.
For series [9], the system named is isolated human islet cells. Description: whole-cell patch clamp recordings of dispersed human islet cells. The format is cell-based. The conditions noted are these: kainate 100 μM; holding potential −70 mV. On the procedure: Membrane currents were measured using whole-cell patch clamp recordings of dispersed human islet cells. All recordings were amplified using an EPC10 patch-clamp amplifier and digitized and analyzed using Patchmaster software (Heka Elektronik, Lambrecht, Germany). Pipettes were pulled from borosilicate glass capillaries on a horizontal programmable puller (DMZ Universal Puller, Zeitz-Instrumente, Augsburg, Germany). Pipettes with a resistance of 5-7 MΩ were filled with a pipette solution containing (in mM): 150 NMG (N-methyl-D-Glucamine), 10 EGTA, 1 MgCl2, 2 CaCl2, 5 HEPES and 3 Mg-ATP (pH 7.15). The bath solution contained (in mM): 138 NaCl, 5.6 KCl, 1.2 MgCl2, 2.6 CaCl2, 5 HEPES and 10 TEA (pH7.4). Cells were voltage-clamped at −70 mV. Ligands (e.g. kainate) were applied using the SF-77B Perfusion Fast-Step system (Warner Instruments, Hamden, Conn.), which allows rapid change of solutions bathing a single cell or membrane patch attached to a patch electrode. […] Thus, it is most likely that cells responding to kainate in our electrophysiological experiments were α-cells.
(In general: Patch clamp records ionic current or voltage across a cell membrane.)

For series [10], the system named is monkey islets. As to the kind of experiment: microfluorometric determination of endogenous glutamate release from islets. The settings on record: kainate 100 μM; KCl 30 mM. The series is classed as cell-based. The method, then: Endogenous glutamate release from pancreatic islets was measured with the Amplex Red Glutamic Acid Assay Kit (Molecular Probes) adapted for microscopic microfluorometric detection (Akagi et al., 2003). In this assay, released glutamate is a substrate in an enzymatic chain reaction that generates the highly fluorescent product resorufin (Molecular Probes, Eugene, Oreg.). L-glutamate is oxidized by glutamate oxidase to produce α-ketoglutarate, NH4, and H2O2. Hydrogen peroxide reacts with the Amplex Red reagent in a reaction catalyzed by horseradish peroxidase to generate resorufin. Pancreatic islets were allowed to attach to a glass coverslip previously coated with poly-D-lysine. The coverslip was mounted in a closed small-volume imaging chamber (Warner Instruments) and perifused with the HEPES-buffered solution containing the stimuli. Resorufin fluorescence was excited at 510 nm, and the emission recorded at 590 nm using the same imaging system used to measure [Ca^2+]i (see above).

The test system of series [11] is mouse islets. Description: perifusion of mouse islets with β cells destroyed by streptozotocin versus intact islets. The settings on record: streptozotocin-treated versus intact islets. The format is cell-based. The method, then: This experiment was performed with mouse islets. Two samples were perifused in parallel (“a” and “b”). In “a” (blue curve and blue bar), but not in “b” (red curve and red bar) the β cells were selectively destroyed with streptozotocin. This absence of β cells generates type 1 diabetes-like condition in vitro. The glucagon release profile in panel “A” was obtained by using this model. […] Note that the non specific stimulus arginine is not able to differentiate a functionally impaired α cell in the absence of β cells.
At t=5 min, both samples were stimulated with 100 μM kainate for 5 min. The glucose was increased to 11 mM for 10 minutes and decreased again to 3 mM for the duration of the perifusion. At t=45 min, both samples (v) were stimulated with 5 mM Arginine. […] Kainate is a glutamate analog that is not metabolizable, and therefore a preferred agonist of the AMPA/Kainate receptors. Error bars represent the standards deviations for n=3 perifusions. Comparison were performed by an independent t-test.
For example, in some embodiments the present invention are directed to an in vitro model in which we destroy selectively the beta cells with, for example, streptozotocin, thus creating a situation that mimics type 1 diabetes. The treated islets are composed mainly of alpha cells. […] To examine if alpha cells in islets depleted of beta cells had impaired glutamate signaling, we stimulated them with kainate, an agonist for ionotropic glutamate receptors.

Consider two compounds from patent US8466185B2, “Methods and assays for detecting and treating hypoglycemia” (priority 2008, dated 2013).

Entries after “also recorded” stand apart in the source; their conditions may differ.

In the case of `N[C@@H](CCC(=O)O)C(=O)O` [glutamate], the “glucagon release / glucagon secretion” value in the series on human islets [1] is reported as “induced glucagon responses”. In the series with human islets [1] (glutamate 1 μM-1 mM), the glucagon release result was “stimulated large, concentration-dependent increases in glucagon release”. In addition, in series [2], the “cells responding to high glucose (11 mM) that did not respond to glutamate” value is on record as 64 out of 64. The “[Ca^2+]i response” value in series [2] is “elicited concentration-dependent [Ca^2+]i; responses; also recorded: increases in cytoplasmic free Ca^2+ concentration”; in series [3], “increases in cytoplasmic free Ca^2+ concentration”. Moreover, in [2] (n=4 human preparations), the “glutamate-responsive cells that were glucagon-immunoreactive” value was 34 out of 37. For the same compound, in the series with human islets [4] (islets on biosensor cells), the “glucagon secretion from human islets measured by [Ca^2+]i responses in biosensor cells” value was “large [Ca^2+]i responses; also recorded: elicited glucagon secretion from human islets”. The “[Ca^2+]i response of biosensor cells in the absence of islets” value in the series with human islets [4] (no islets) is listed as “did not respond; also recorded: No responses were seen”. The “glucagon release / secretion” value in the series on mouse islets [5] is recorded as “stimulated glucagon release”. Moreover, the “glucagon responses to glutamate in islets from mGluR4 knockout versus control mice” value in the series on mouse islets [5] (glutamate 100 μM) is “undistinguishable in wild type and mGluR4KO mice”. Also, in the series on C57BL/6 mice, the plasma insulin concentrations entry is listed as “not affected; also recorded: did not change”. Besides, in the series with C57BL/6 mice (30 minutes after treatment), the plasma glucagon concentrations entry is listed as “increased plasma glucagon concentrations”. Further, the plasma glucose concentrations entry in the series with C57BL/6 mice (thirty minutes after injection) is “increased glucose levels”. The blood-brain barrier penetration entry in series [6] is on record as “does not penetrate the blood-brain barrier”. Also, the insulin release entry with human islets [7] is on record as “Neither kainate (100 μM), glutamate (100 μM), nor AMPA (100 μM) stimulated increases in insulin release”; with monkey islets [8], “Neither kainate (100 μM), glutamate (100 μM), nor AMPA (100 μM) stimulated increases in insulin release”.
For the compound `C=C(C)[C@H]1CN[C@H](C(=O)O)[C@H]1CC(=O)O` [kainate], the “glucagon release / glucagon secretion” value with human islets [1] is reported as “stimulated large increases in glucagon secretion; also recorded: Increases in glucagon release could also be elicited”; in the series on human islets [1] (listed as Kainate) it was “elicited strong glucagon secretion”. Besides, the “glucagon immunoreactive cells that responded to kainate” value in series [2] is 7 out of 9. For the same compound, the “[Ca^2+]i response” value in [2] was “large increases in [Ca^2+]i”. In addition, the “kainate responsive cells that were glucagon immunoreactive” value in series [2] ([Ca^2+]i imaging experiments) is greater than 75%. The “glutamate-responding cells that also responded to kainate” value in series [2] (kainate 100 μM) is 12 out of 12. In addition, the “insulin immunoreactive cells that responded to kainate” value in series [2] (n=8) was “None”. Moreover, the whole-cell inward currents result in series [9] is “elicited inward currents”. The “glutamate release (resorufin fluorescence)” value in the series with monkey islets [10] is recorded as “induced significant glutamate release; also recorded: strongly released glutamate”. For the same compound, the “glucagon release / secretion” value in the series on mouse islets [5] is given as “stimulated glucagon secretion”. Further, the “reduction of amplitude of kainate-induced glucagon release in absence of β cells” value in the series with mouse islets [11] (kainate 100 μM for 5 min) was 55%. Moreover, the “kainate potentiation of glucagon release in absence versus presence of β cells” value with mouse islets [11] is “not as effective in potentiating glucagon release; also recorded: strongly reduced glucagon responses”. Moreover, the insulin release entry in the series on human islets [7] was “Neither kainate (100 μM), glutamate (100 μM), nor AMPA (100 μM) stimulated increases in insulin release”; in the series with monkey islets [8], “Neither kainate (100 μM), glutamate (100 μM), nor AMPA (100 μM) stimulated increases in insulin release”.
